# Where two headings read alike, the source gives them in different places.
# What was measured:
# DNA synthesis = DNA synthesis in Xenopus egg extracts ([α-32P]dATP incorporation); assay type: biochemical; settings: [α-32P]dATP incorporation after 3 h; read-out: Inhibition of DNA synthesis IC50
# Method: (§1) Metaphase-arrested Xenopus egg extracts were prepared as described previously by Blow “J. Cell Biol.” 1993, 122:993 and stored in liquid nitrogen. Demembranated Xenopus sperm nuclei were prepared as described by Blow & Laskey “Cell” 1986;47:577.
# (§2) At concentrations of cdk inhibitors (see Table 6) ranging from 0.1-2 μM, chromosomes remained highly condensed and no nuclear envelope was visible. At 4-6 μM and higher concentrations, interphase nuclei appeared with partially decondensed chromatin and an intact nuclear envelope. […] For the inhibition effect to become detectable, the first 15-min incubation of the interphase extract is probably sufficient.
# MPF activity = assay: M-phase promoting factor inhibition in metaphase-arrested Xenopus egg extracts; assay type: biochemical; settings: 1.5 h after addition
# Method: as §1, §2
# [1] = test system: adult bone marrow CD34+CD38- cells; assay: pre-CFU assay; assay type: cell-based, human; settings: for IC50: 14 day liquid culture, total clonogenic output after secondary methylcellulose culture
# Source text: […]. Cells with low-to-medium forward and low side scatter, highly positive green (CD34) fluorescence, and an orange (CD38) fluorescence signal lower than the mean fluorescence of cells labeled with an irrelevant isotype-matched control antibody+2 standard deviations were retained as CD34^+CD38^− cells and used in pre-CFU assays.
# Pre-CFU assays were initiated by performing liquid cultures of CD34^+CD38^− cells in duplicate in 96-well flat-bottomed plates in IMDM/10% FCS, 1% bovine serum albumin (BSA), 100 U/ml IL-1, 200 U/ml IL-6, 30 U/ml IL-3 and 100 ng/ml stem cell factor (SCF). Pre-CFU cultures were initiated with 500 CD34^+CD38^− cells/well (200 μl). After 14 days of culture at 37° C. in 7.5% O2 and 5% CO2 in a fully humidified incubator, the number of cells in each well was counted. Subsequently, the cells were harvested, washed three times in IMDM/10% FCS, and plated in duplicate at 500 cells/well (1000 μl) in secondary methylcellulose CFU cultures as described for CFU assays.
# Pre-CFU were cultured starting from adult bone marrow CD34^+CD38^− cells, that had been isolated using the FCM cell sorter. Novel compounds were added at different concentrations to the primary 14 day liquid culture. IC50 was calculated from dose-response curves from total clonogenic output after secondary methylcellulose culture (Table 5).
# KG1 = assay: clonogenic output of KG1 in methylcellulose; assay type: cell-based, human; settings: 25 μM, 14 days
# Method: (§3) Cell lines: Human leukemic cell lines were obtained from the American Type Culture Collection (ATCC, Rockville, Md., USA). They were cultured in Iscove's Modified Dulbecco's Medium (IMDM) supplemented with 10% heat inactivated fetal calf serum (FCS), 200 U/ml penicillin, 200 μg/ml streptomycin and 1 μg/ml amphotericin B. Cells were cultured in a 5% CO2-95% air fully humidified incubator. For effects on clonogenic output, 1000 cells/well were plated in duplicate in methylcellulose (0.9%), supplemented with 20% FCS and cultured for 14 days.
# Clonogenic output of KG1 was tested in methylcellulose with 25 μM of some of the novel compounds.
# [2] = test system: myeloid leukemia KG1 cell line; assay: cell growth of KG1 cell line, flow cytometric cell count; settings: for IC50: read-out: KGI IC50
# [3] = test system: T-lymphocyte leukemia Molt3 cell line; assay: cell growth of Molt3 cell line, flow cytometric cell count; assay type: cell-based, human; settings: 96 hours of culture
# Method: as §3
# (§4) Cells were plated at 10000 per well in 200 μl IMDM medium and incubated with 0-50 μM of the compounds of the invention (Table 5), by addition of the drugs directly to the culture medium and incubated at 37° C. for 96 hours. Absolute cell number was determined by addition of a known concentration of Fluoresbrite microspheres (FITC) (Polysciences, Inc.). The absolute number of cells per well was calculated as: {(total number of beads added per well)/(number of beads measured)}×(number of measured cells in the gate of interest). All analyses were performed with a FACScan (BD), using CELLQuest software (Becton Dickinson).
# The response of the myeloid leukemia KG1 and T-lymphocyte leukemia Molt3 cell lines to the cytostatic effect of the novel compounds was determined using the above-mentioned standardized bead suspension that was used to determine the absolute cell number by flow cytometric (FCM) measurement. Cells were grown in the presence of increasing concentrations of the compounds of the invention.
# KG1 cells = assay: apoptosis and cell cycle in KG1 cells (fluorescence microscopy, TUNEL); assay type: cell-based, human
# Method: Nuclear morphology of the cells was analysed with the fluorochromes Hoechst 33342 (λEx max 346 nm; λEm max 460 nm) (Sigma) prepared in phosphate-buffered saline (PBS at 0.1 mg/ml, added to the culture medium at a final concentration of 2 μg/ml and ethidium bromide (EB) (λEx max 540 nm; λEm max 625 nm) (Sigma) prepared in PBS at 100 μg/ml and added to the culture medium at a final concentration of 2 μg/ml (Lizard, 1995). Hundred cells were counted for each sample and percentage of apoptosis was determined.
# Control and novel compound-treated cell cultures were washed with PBS and fixed in […] (pH 7.4) for 15 minutes on ice. After washing in PBS, cells were permeabilized in 70% cold (−20° C.) ethanol and transferred to 4° C. for at least 1 hour. After rehydratation in PBS, cells were labeled with 50 μl/well TUNEL reaction mixture (Boehringer Mannheim). Cells were incubated in this solution at 37° C. for 40 minutes, washed in PBS and resuspended in 500 μl PBS containing 5 μg/ml EB and 0.1% RNAse. After 30 minutes of incubation at 4° C., green (FITC-dUTP) and red (EB-DNA) fluorescence of individual cells was measured on a FACscan flow cytometer (Gorczyca, 1993). Negative control (fixed and permeabilized cells incubated with 50 μl label solution per well without terminal transferase, instead of TUNEL reaction mixture) and positive control (fixed and permeabilized cells incubated with DNase I (100 μg/ml) that induces DNA strand breaks) were included in each experimental set-up.
# Flow cytometric detection of apoptosis combined with DNA staining can identify apoptotic cells and simultaneously evaluate their position in the cell cycle. This technique was used to provide infomation about the possible cell cycle specific initiation of apoptosis by the tested compounds. If more than 2% of apoptotic cells were detected by the TUNEL method and the absolute number of acquired apoptotic events exceeded 2000, DNA content was simultaneously measured. Within the apoptotic population, analysis and calculation of the different cell cycle phases was carried out by an iterative curve fitting procedure (ModFit LT cell cycle analysis sofware from Verity software house, INC).
# Viable, apoptotic, necrotic (=primary necrosis, not following apoptosis) and secondarily necrotic cells (=late apoptotis, evolving to necrosis) were scored differentially after 6, 12, 24, 48 and 72 hours of exposure to novel compounds. For the three products a different apoptosis-inducing pattern could be observed. Apoptosis induction occurs fast after incubation with P23 and P28 but slower after incubation with P27.
# Flow cytometric detection of apoptosis and cell cycle analysis: The induction of apoptotic death of KG1 cells by the novel compounds was confirmed using the TUNEL reaction technique (FIG. 5). […] Incubation of KG1 cell line with P27 results in detectable apoptosis after 24 hours. Percentage of apoptotic cells in G0-G1 increases with time, while the number of apoptotic cells in S+G2/M phases decreases. […] After 6 and 12 hours of incubation the apoptotic population seems mainly to evolve from S phase.
# CDC2 = target: T1, CDC2 (Homo sapiens, UniProt P06493); assay: p34cdc2 (CDC2) kinase inhibition assay, histone H1 substrate; assay type: biochemical; settings: Table 5, CDC2 activity in cell free system
# T1 construct: made in house; host or cells: Sf9 insect cells, baculovirus co-infection
# [4] = test system: PHA-stimulated lymphocytes (PBMC); assay: cell number of PHA-stimulated lymphocytes (PBMC), flow cytometry; assay type: cell-based, human; settings: 96 hours, in the presence of IL-2
# Method: Human peripheral blood mononuclear cells were isolated by density gradient (Ficoll-Hypaque) (LSM, ICN Biomedicals Inc.). PBMC were stimulated with 5 μg/ml phytohemaglutinin A (PHA) (Sigma) during 24-48 hours in IMDM supplemented with 10% FCS (IMDM/10% FCS) at 37° C. After washing off the PHA, PBMC were incubated with interleukin-2 (IL-2) (10 U/ml) (Genzyme).
# as §4
# The novel compounds were tested for cytotoxicity on PHA-stimulated lymphocytes (PBMC), as one of the normal counterparts of the cell lines. Cells were grown for 96 hours in the presence of IL-2 and different concentrations of the novel compounds and cell number was counted on the flow cytometer.
# [5] = test system: CD34+ hematopoietic progenitors (HPC) from adult bone marrow; assay: myeloid colony-forming unit (CFU) assay; assay type: cell-based, human; settings: for IC50: 14 days, methylcellulose, total colony output
# T1 sequence (P06493 whole entry, species assumed): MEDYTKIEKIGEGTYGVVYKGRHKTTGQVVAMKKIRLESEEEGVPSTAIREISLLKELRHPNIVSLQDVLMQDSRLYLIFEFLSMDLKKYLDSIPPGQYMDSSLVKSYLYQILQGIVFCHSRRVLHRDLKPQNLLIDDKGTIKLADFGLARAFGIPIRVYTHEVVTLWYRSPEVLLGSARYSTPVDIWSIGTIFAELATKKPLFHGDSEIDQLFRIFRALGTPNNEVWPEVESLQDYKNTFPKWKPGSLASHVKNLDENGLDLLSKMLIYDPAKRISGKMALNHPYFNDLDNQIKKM
# T1 sequence (P14635 whole entry partner, species assumed): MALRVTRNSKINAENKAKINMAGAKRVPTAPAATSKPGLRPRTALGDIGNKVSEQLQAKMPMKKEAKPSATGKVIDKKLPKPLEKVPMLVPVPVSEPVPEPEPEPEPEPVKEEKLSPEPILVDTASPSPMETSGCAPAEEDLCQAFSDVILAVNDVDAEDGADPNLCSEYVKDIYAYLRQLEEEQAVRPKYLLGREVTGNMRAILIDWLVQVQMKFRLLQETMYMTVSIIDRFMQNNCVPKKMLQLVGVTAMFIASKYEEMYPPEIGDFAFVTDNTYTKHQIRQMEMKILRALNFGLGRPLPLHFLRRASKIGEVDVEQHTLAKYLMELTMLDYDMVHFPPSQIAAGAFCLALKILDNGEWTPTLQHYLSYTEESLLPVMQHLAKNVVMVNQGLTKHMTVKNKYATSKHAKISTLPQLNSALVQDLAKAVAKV
Structure (SMILES),IC50 (DNA synthesis),IC50 (MPF activity),"IC50 ([1]; Homo sapiens, 336 h)",Colony output vs. control cultures without novel compound (KG1),"IC50 ([2]; Homo sapiens, KG-1, 96 h)","IC50 ([3]; Homo sapiens, MOLT-3)",IC50 (CDC2),"IC50 ([5]; Homo sapiens, 336 h)","output of the different types of myeloid colonies (CFU-E, CFU-G and CFU-M) ([5]; scored differentially)",also measured
CC(C)n1cnc2c(NCc3ccc(O)c(O)c3)nc(NCCCO)nc21,4.2 µM,3.6 µM,–,–,–,–,–,–,–,–
CC[C@H](CCO)Nc1nc(NCc2ccc(O)c(O)c2)c2ncn(C(C)C)c2n1,3.5 µM,2.8 µM,–,–,–,–,–,–,–,–
CC(C)n1cnc2c(NC(CO)c3ccccc3)nc(NCCCO)nc21 (racemic),1.4 µM,1.5 µM,–,–,–,–,–,–,–,–
"CC(C)n1cnc2c(NC(CO)c3ccccc3)nc(NCCCO)nc21 (racemic) [P27, 2-(3-hydroxypropylamino)-6-[(R,S)-(1-phenyl-2-hydroxyethyl)amino]-9-isopropylpurine]",–,–,> 25 µM,8%,7 ± 2 µM,14 ± 1.5 µM,> 100 µM,> 50 µM,significantly lower colony output,"cell number after 6 hours of exposure, wash and 7 days in drug-free medium ([2]; KG1, compared to control without novel compounds): (some) recovery of cell number; time of incubation after which apoptosis was detected (TUNEL) (KG1 cells; KG1): 24 h; speed of apoptosis induction (microscopic examination) (KG1 cells; KG1, 6-72 hours of exposure, FIG. 4): slower; apoptotic cells in G0-G1 phase versus control cells (KG1 cells; KG1, TUNEL with EB, FIG. 6): significant after 72 hours; CC50 ([4]; Homo sapiens, Lymphocyte, read-out: Lymphocytes IC50): 8 ± 0.5 µM; CFU-M colony output ([5]; scored differentially): not significantly decreased"
"CC(C)=CCNc1nc(NCCO)nc2c1ncn2C [P3, 2-(2-hydroxyethylamino)-6-(2-isopentenylamino)-9-methylpurine]",–,–,> 25 µM,47%,≥ 51 µM,≥ 51 µM,–,> 50 µM,no significant difference,–
CSc1nc(NC(C)c2ccc(O)c(O)c2)c2ncn(C(C)C)c2n1 (stereo not shown) [P16],–,–,–,16%,–,–,> 200 µM,–,no significant difference,activity on pre-CFU compared with CFU [1]: more active on pre-CFU than on CFU; IC50 [1]: 16 µM; IC50 ([2]; 96 hours of culture): 23 ± 1.2 µM; IC50 [3]: 37 ± 7.9 µM; IC50 [4]: 26.5 ± 2.8 µM; IC50 [5]: > 50 µM
